Laboratory results published in US20090233307A1, “METHODS FOR DETECTION OF SINGLE STRAND BREAKS IN DNA” (The University of North Carolina at Chapel Hill, priority 2008, published 2009).

What was measured:
Pol β null cells = assay: SSB repair through NAD(P)H depletion, Pol β null cells; type: cell-based, chicken; conditions: 1 mM MMS for up to 4 hours, Pol β null cells
Experimental: SSB repair capacity was determined by a real-time colorimetric assay that measures intracellular NAD(P)H levels (Tano et al., DNA Repair, 6, 869-875 (2007)). PARP-1 activation during SSB repair leads to NAD^+ consumption, which can be indirectly monitored through NAD(P)H depletion (Nakamura et al., Nucleic Acids Res., 31, e104 (2003)). Briefly, 5×10^3 cells/well were seeded into a 96-well plate. After a 30 minute incubation period, the cells were treated with 1 mM MMS quickly followed by the addition of a dye containing XTT (Sigma) and 1-methoxy PMS (Sigma). For up to 4 hours, the NAD(P)H-dependent conversion of the XTT tetrazolium salt to a yellow colored formazan dye was measured spectrophotometrically. Decreases in intracellular NAD(P)H levels were determined through comparison of values to those of the PBS control. Established methods for detecting SSBs have not been adequately characterized for pH effects on DNA structure and chemistry and also lack a high specificity for SSBs, primarily because of artifactual SSB formation. […] The accumulation of SSBs leads to PARP-1 over-activation and the consumption of NAD+, which is indirectly monitored in living cells through the measurement of intracellular NAD(P)H depletion using tetrazolium salts, such as XTT, during chemical exposure (Tano et al., DNA Repair, 6, 869-875 (2007)). […]

DT40 cells = type: cell-based; conditions: chicken, 1 mM
Experimental: DT40 and Pol β null cells were seeded into 100 cm dishes and allowed to divide overnight to reach the density of 1×10^6 cells/mL. Cells were exposed to a continuous treatment of 1 mM methyl methanesulfonate (MMS; Aldrich) for up to 4 hours. Control cells received 1× phosphate buffered saline (PBS) for 0.5 hour. After incubation, cells were harvested, washed with chilled 1× PBS, pelleted, and stored at −80° C. until DNA isolation. Using this protocol, DT40 cells were also incubated in the absence of chemical to obtain a stock of untreated DNA.

[1] = test system: Chinese hamster ovary (CHO) AA8 cells; assay: OTX-coupled comet assay; type: cell-based; conditions: 10 minute exposure to 1 mM MMS, CHO AA8
Experimental: Chinese hamster ovary (CHO) AA8 cells were seeded at a concentration 0.5×10^6 cell/mL into several 10 cm culture dishes with 10 mL of MEM-α media (Gibco) supplemented with 10% fetal bovine serum (heat inactivated; Sigma), 100 μg/mL penicillin, and 100 μg/mL streptomycin. These were allowed to grow for 48 hours at 37° C. and 5% CO2. Culture dishes were about 80-85% confluent at harvest.
Before cells were harvested for use in the comet assay, the lysis solution (2.5 M NaCl, 100 mM Na2-EDTA, 10 mM Trizma, pH 10) was completed with the addition of 10% (v/v) DMSO and 1% (v/v) Triton X-100, mixed thoroughly, and refrigerated at 4° C. A 0.5% solution of low melting point agarose (LMPA) was also prepared and allowed to equilibrate to 37° C. in a water bath. Partially frosted microscope slides, pre-coated several days before with 50 μL of 1% normal melting point agarose (NMPA), were labeled and set aside.
Prior to cell harvest, the media was removed and each dish was washed with 10 mL of 1×PBS. An additional 2 mL of 1×PBS was added to each dish and the cells were harvested using a rubber policeman. Harvested cells were combined into 15 mL centrifuged tubes and gently mixed by pipetting to obtain a homogenous cell sample. The cell count was obtained using a hemacytometer. The volume of cell sample needed to obtain 11,000 cells per slide to be prepared was added to a new 15 mL centrifuge tube and centrifuged for 5 minutes at 1,100 RPM. The supernatant was removed and the cell pellet resuspended in 1×PBS at a volume equal to 10 μL per slide to be prepared (e.g. 5 slides×10 μL per slide=50 μL 1×PBS total).
For each slide to be prepared, 10 μL of the cell sample was added to a 1.5 mL centrifuge tube. The cell layer of the slide was created by first gently mixing 100 μL of the 0.5% LMPA with the 10 μL of cell sample in the tube. This mixture was then added to a pre-coated slide and a coverslip placed onto the slide to create a thin layer of the cell mixture. Slides with cell layers were then refrigerated at 4° C. for 15 minutes to solidify the gel. After this incubation, the initial coverslips were removed and an additional 150 μL of 0.5% LMPA was added to each slide. A fresh coverslip was placed onto each slide to create a thin top layer and the slides were refrigerated for another 15 minutes. After removing the coverslip, completed slides that were receiving MMS treatment were placed in a slide chamber containing warmed MEM-α media with 1 mM MMS for 10 minutes. The slide chamber was kept warm by placing it within an incubator held at 37° C. After the 10 minutes, the slides were washed with 1×PBS for 5 minutes at room temperature and then transferred to slide chambers containing the chilled lysis solution. […]

**Q.** Which results are given for COS(C)(=O)=O [MMS, methyl methanesulfonate]?
**A.** intracellular NAD(P)H levels (Pol β null cells): time-dependent decrease but with more extensive depletion occurring as early as 30 minutes; AP sites (ASB assay) compared to control (DT40 cells): time-dependent, significant (p<0.01 for all time points, student t-test) increase in AP sites; tail moment compared to the untreated control (no MMS) [1]: significant difference in tail moment
